# Results taken from patent US20090270373A1, “TREATMENT OF DOWN SYNDROM WITH BENZODIAZEPINE RECEPTOR ANTAGONISTS” (Cypress Biosciences, Inc., priority 2008, published 2009).
# Assays:
# [1] = test system: Ts65Dn mice; assay type: in vivo, mouse
# Experimental: (§1) A 4-week longitudinal crossover study is carried out following the method outlined by Fernandez et al., supra. Wild-type and Ts65Dn mice (3-4 months of age) are randomly assigned to groups receiving daily i.p. injections of saline or flumazenil (1.0 mg/kg), and are submitted to four weekly repetitions of object recognition testing, in which the animals are serially presented with four different object sets. At the 2-week midpoint of the experimental period, wild-type and Ts65Dn mice that have been receiving saline are randomly segregated into groups that either continue to receive daily saline injections or begin to receive daily injections of flumazenil. Conversely, wild-type and Ts65Dn mice that have been chronically administered flumazenil in the first 2 weeks of testing are switched onto a saline regimen. Alongside saline and flumazenil, bilobalide (i.p. 5.0 mg/kg) may be evaluated as a positive control. Bilobalide is a picrotoxin-like compound that may safely be administered for the whole 4-week experiment.
# (§2) Flumazenil may also be tested for its effects on declarative memory in the novel object recognition test and in a modified spontaneous alternation task. Wild-type and Ts65Dn mice may be administered flumazenil (3 mg/kg in milk via voluntary oral feeding or 1 mg/kg i.p.). The wild-type and Ts65Dn mice are administered from 5 to 30 doses of milk or milk-flumazenil (or saline or flumazenil solution i.p.). The mice are then subjected to two repetitions of novel object recognition testing or three daily T-maze sessions at the tail end of the treatment regimen. […] Comparison of treated and untreated Ts65Dn mice will provide controls for any possible arm bias in the spontaneous alternation task.
# as §1, with “bretazenil” for “flumazenil”, “bretazenil.” for “flumazenil.”, “bretazenil,” for “flumazenil,”
# as §2, with “Bretazenil may” for “Flumazenil may”, “administered bretazenil” for “administered flumazenil”
# [2] = test system: Ts65Dn mice; test: Novel object recognition assay (Discrimination Index) in Ts65Dn mice, model of Down syndrome; assay type: in vivo, mouse
# Experimental: Following baseline determinations and group assignments, WT and Ts65Dn mice received intraperitoneal (i.p.) injections once/day (08:00) for the two-week duration of the drug treatment regimen (FIG. 1). Drugs were dissolved in physiological saline. Two drops of Tween 80 were used to facilitate solution formation for flumazenil. Picrotoxin was initially made up at 50× concentration in 20% ethanol and then diluted down to a […] solution with 0.4% ETOH in saline. Doses of drugs were based on previous behavioral research in mice (1 mg/kg for PTX and 10 mg/kg for flumazenil). Injections were given in a volume of 10 ml/kg. A vehicle control was run along side the treatment groups (0.4% ETOH in saline).
# FIG. 1 graphically depicts the protocol. After habituation to the animal facility, mice were tested for baseline behaviors in the open-field locomotor assay (LMA)(30 min session) and the novel object recognition assay. Primary experimental groups were divided by genotype (Ts65Dn mice and wild-type control littermates). These two groups were further divided into drug treatments (vehicle, PTX and flumazenil) with a targeted n-size of 8 mice/group (24 WT and 24 Ts65Dn mice total). The group assignments were made in a semi-random process due to constraints in animal availability (staggered shipping) and choice of initial treatment groups (e-mail documentation between Bilsky laboratory and Cypress Bioscience on file). Daily morning injections began on Day 1 and went through the morning of Day 14. On Days 7/8 and 14/15 (13:00) mice were tested in the behavioral assay. Mice were kept for an additional two weeks and re-tested on Days 21/22 and 28/29 to assess the duration of the drug treatment effect.
# The novel object recognition task is based on the innate tendency of rodents to differentially explore novel objects over familiar ones. The task is well validated for evaluating rodent memory and the effects of drug treatments on learning/memory performance.
# Mice were trained and tested once per week, each experimental session separated by a one-week interval. Mice were submitted to daily handling sessions, and given an opportunity to habituate to an open field arena (48 cm×48 cm wide×25 cm), where they were exposed to two different objects (complex protocol), during a 5-minute training session. Objects were made from various non-porous materials that differ in shape and color. Mice were unable to climb onto the objects and the objects were generally consistent in height and volume, and were roughly symmetrical on a horizontal plane. Objects were positioned in two corners of the apparatus. To control for odor cues, the open field arena and the objects are thoroughly cleaned with 90% ethanol, dried, and ventilated for a few minutes between mice.
# A 5-minute testing session was conducted 24 h after training. Here, the mice were presented with the object they had explored the previous day, and a new item (the objects being alternatively positioned in one corner or another in a balanced fashion within a given week, and from one week to another). […]
smiles,measurement,setting,value
"CCOC(=O)c1ncn2c1CN(C)C(=O)c1cc(F)ccc1-2 [flumazenil, 8-fluoro-5,6-dihydro-5-methyl-6-oxo-4H-imidazo[1,5-a]benzodiazepine-3-carboxylic acid ethyl ester]",object recognition performance,"[1]; 4-week crossover, flumazenil or bretazenil 1.0 mg/kg i.p. for 2 weeks, bilobalide 5.0 mg/kg i.p. throughout",normalized object recognition performance
same,discrimination indices in the object recognition task,"[1]; 5 to 30 doses, 3 mg/kg in milk orally or 1 mg/kg i.p.",on a par with those of wild-type mice
same,"novel object recognition testing, long term","[1]; up to at least 2 months after treatment, treated for at least about 15 days",long-term improvement
same,Discrimination Index (DI),"[2]; Week 1 of drug therapy, PTX 1 mg/kg, flumazenil 10 mg/kg i.p.",positive effects
same,Discrimination Index (DI),[2]; Week 2 of drug therapy,positive effects
same,effect in the object recognition assay as compared to vehicle,"[2]; flumazenil 10 mg/kg i.p., conclusion",beneficial effect
